{"source": "patent US20240207202A1", "about": "“COMBINATION THERAPIES TARGETING MITOCHONDRIAL BIOGENESIS FOR CANCER THERAPY” (The Wistar Institute of Anatomy and Biology, priority 2015, published 2024)", "type_in_all_cases": "cell-based, human", "key": {"[1]": {"test_system": "BRAF-mutated resistant melanoma cell lines", "assay": "Induction of apoptosis and cell death by PSVue 643 staining in acquired drug resistant melanoma cell lines", "experimental": "Adherent melanoma cells were harvested with 0.05% Trypsin-EDTA and were washed once with 1×DPBS. Cells were labeled with CellTrace™ Violet according to the manufacturer's protocol and were allowed to adhere to tissue culture plates overnight following the drug treatment. At indicated time points following the drug treatment, floating and adherent cells were pooled, washed with Hank's Buffered Salt Solution (HBSS) and then stained with CellROX Deep Red at 2.5 μM or MitoTracer Red at 0.25 μM for 1 h in a 37° C. humidified incubator supplied with 5% CO2. Cells were then pelleted, washed with DPBS, and stained with PSVue® 643 at 5 μM diluted in TES buffer for 5 min in the dark. Cells were then immediately subjected to FACS analysis using a BD LSR II flow cytometer and at least 5,000 cells per sample were acquired.\nLabeling cells with Propidium Iodide and PSVue—Following centrifugation, cells were resuspended in 0.1 ml 1×PBS, co-stained with propidium iodide at 1 μg/ml and PSVue® 643 at 5 μM, and then stained with PSVue® 643 at 5 μM alone. Cell suspensions were kept in the dark at room temperature for 5 min. 0.2 ml 1×PBS supplemented with 10% FBS was added to each cell suspension and cells were immediately analyzed by BD LSRII.\nSeparation of live cells from dead cells including early apoptotic cells—Based on the fluorescence of PSVue 643, cells are separated into 2 subpopulations, live cells (PSVue 643Neg) and dead cells including early apoptotic cells (PSVue 643Pos)."}, "WM9 cells": {"test_system": "WM9 cells", "assay": "Cell viability by CellTiter Glo in WM9 cells", "settings": "WM9, 72 h, Gamitrinib titrated with PLX4720 10 μM or PLX4720 10 μM and PD0325901 1 μM", "experimental": "Cell viability was measured by the MTT assay or CellTiter-Glo luminescent cell viability assay (Promega). For the assessment of cell clonogenicity, cells were seeded into 12-well tissue culture plates at a density of 500 cells/well as biological triplicates in drug-free medium. Medium was refreshed every 3 or 4 days for 14 days. Colonies were then stained overnight with methanol containing 0.05% crystal violet. After extensive washing with distilled H2O, cells were air-dried and subjected to image acquisition using a Nikon D200 DLSR camera."}, "[2]": {"test_system": "HKI, HKII, PDHE1, PDK1, PDK2, LDHA, PKM1, GLUT1 and GLUT3", "assay": "Expression of glycolysis regulators in WM9 cells (qRT-PCR, immunoblot)", "settings": "WM9, Gamitrinib combined with PLX4720", "experimental": "One μg total mRNA was reverse transcribed using a Maxima First Strand cDNA Synthesis Kit for qRT-PCR (Thermo Fisher). Fast SYBR® Green Master Mix (Life Technologies) was used with cDNA template and primers to evaluate the expression of target genes and GAPDH. Primers used were purchased from Integrated DNA Technologies. Amplifications were performed using an Applied Biosystems® 7500 Real-Time PCR System (Life Technologies). All experiments were performed in triplicate. Expression ratios of controls were normalized to 1. Please see Extended Experimental Procedures for the list of PCR primer sequences.\nCells were washed with ice-cold PBS containing 100 μM Na3VO4 and scraped off culture dishes. After centrifugation, cell pellets were lysed in buffer containing 10 mM Tris-HCl, pH 7.8, 150 mM NaCl, 1 mM EDTA, 1% Nonidet P-40, 1 mM Na3VO4 and protease inhibitors (Roche complete protease inhibitor tablets). Lysates were cleared by micro-centrifugation and protein concentrations were determined with Protein Assay Dye Reagent Concentrate (Bio-Rad). For western blots, 25 μg of each lysate were run on 15-well 10% or 12% SDS-PAGE gels and transferred onto nitrocellulose membranes using a dye fast Trans-BlotR Turbo™ transfer system (Bio-Rad). […]"}, "2-NBDG uptake": {"test_system": "2-NBDG uptake", "assay": "Uptake of 2-NBDG in WM9 cells", "settings": "WM9, 72 h, Gamitrinib combined with PLX4720 10 μM", "experimental": "Cells were washed with HBSS and were then pre-incubated with Opti-MEM (Life Technologies) for 15 min. Cells were then incubated with DMEM deprived of glucose, glutamine and phenol red (Life Technologies, cat. #A14430-01) and Fetal Bovine Serum that was supplemented with 2-NBDG (Cayman Chemical, cat. #11046) at […] for 1 h. Cells were washed with HBSS and were immediately harvested for FACS analysis."}}}
{"substance": "Gamitrinib", "values": [{"measurement": "cell death in combination therapy resistant (CR) cell line", "setting": "[1]; 1 CR cell line (WM9 CR), Gamitrinib 1 and 2.5 μM, 48 h", "result": "significantly induced cell death"}, {"measurement": "resistant cell lines in which apoptosis and cell death was significantly induced", "setting": "[1]; 23 resistant cell lines, 2.5 μM Gamitrinib, 72 hours", "result": "18 of 23"}, {"measurement": "BRAF inhibitor resistant (BR) cell lines in which cell death was significantly induced", "setting": "[1]; BR cell lines, PLX4720 10 μM plus Gamitrinib 2.5 μM, 48 h", "result": "7 out of 9"}, {"measurement": "cell viability", "setting": "WM9 cells", "result": "significantly impaired cell viability"}, {"measurement": "expression of key regulators of aerobic glycolysis, mRNA and protein", "setting": "[2]", "result": "substantially down-regulated"}, {"measurement": "uptake of 2-NBDG", "setting": "2-NBDG uptake", "result": "decreased uptake of 2-NBDG"}]}
